Reference: patent publication US7499894B2, “Cerebral programming” (priority 2001, dated 2009)

Legend:
[1] = tested on: cultured network of cortical neurons; experiment: Spiking activity of cultured cortical network, intracellular and MEA recordings; assay type: cell-based, rat; settings: all three applied together: 5 μM bicuculin, 10 μM DNQX and 20 μM APV; cortical neurons from newborn rats on MEA
Experimental: Culture techniques. Cortical neurons are obtained from newborn rats within 24 hours from birth, following standard procedures. The cortex tissue is digested enzymatically and mechanically dissociated. The neurons are plated directly onto substrate-integrated multi-electrode array (MEA) dishes (see below). The cultures are bathed in MEM supplemented with heat-inactivated horse serum (5%), Glutamine (0.5 mM), Glucose (20 mM), and Gentamycin (10 μg/ml), and maintained in an atmosphere of 37° C., 5% CO2 and 95% air in a tissue culture incubator and during the recording phases. Half of the medium is exchanged twice a week. Experiments are performed in the third week after plating, thus allowing complete maturation of the neurons.
The electrical activity of the cultured network is dependent upon synaptic transmission: there are many published reports showing that the electrical activity in a cultured cortical network may be blocked by perfusion with the N-Methyl-D-aspartate (NMDA) receptor antagonist D-2-amino-5-phosphonovalerate (APV) and non-NMDA receptor antagonist 6-cyano-7-nitroquinoxaline-2,3-dion (CNQX). We repeated these experiments, using intracellular recordings as well as MEA recordings.
Electrophysiological methods. We use arrays of 60 Ti/Au/TiN electrodes, 30 μm in diameter, spaced 200 μm from each other (MultiChannelSystems (MCS), Reutlingen, Germany). The insulation layer (silicon nitride), is pretreated with poly-L-lysine forming a good surface for network development. A commercial 60-channel amplifier (B-MEA-1060, MCS, Reutlingen, Germany) with frequency limits of 10-3000 Hz and a gain of ×1024 is used. The B-MEA-1060 is connected to MCPPlus filter amplifiers (Alpha Omega, Nazareth, Israel) for further amplification (×10 to ×20). Stimulation through the MEA is performed using a dedicated 8-channel stimulus generator (MCS, Reutlingen, Germany). Micro-incubation environment is arranged, to support long-term recordings from MEA dishes. […]

[2] = tested on: cultured cortical network; settings: perfusion with APV and CNQX together; many published reports; cited from earlier work

Row | Structure (SMILES) | spiking activity within the cultured network [1] | electrical activity in a cultured cortical network [2]
1 | N[C@H](CCCP(=O)(O)O)C(=O)O [APV, D-2-amino-5-phosphonovalerate] | completely abolished | blocked
2 | N#Cc1cc2c(cc1[N+](=O)[O-])=NC(=O)C(=O)N=2 [CNQX, 6-cyano-7-nitroquinoxaline-2,3-dion] | – | blocked
3 | O=[N+]([O-])c1cc2nc(O)c(O)nc2cc1[N+](=O)[O-] [DNQX] | completely abolished | –
4 | CN1CCc2cc3c(cc2[C@H]1[C@@H]1OC(=O)c2c1ccc1c2OCO1)OCO3 [bicuculin] | completely abolished | –
